Where two headings read alike, the source gives them in different places.
Target: T1, full-length human PRMT3 isoform 1 (GST-tagged) (Homo sapiens, UniProt O60678)
T1 construct: GST-tagged PRMT3; made in house; host or cells: E. coli BL21(DE3) Gold
Assay: PRMT3 Biochemical Assay (3H-SAM Flashplate, peptide substrate)
From the text: General Materials. S-adenosylmethionine (SAM), S-adenosylhomocysteine (SAH), bicine, Tween20, dimethylsulfoxide (DMSO), bovine skin gelatin (BSG),), isopropyl-β-D-thiogalactopyranoside (IPTG), and Tris(2-carboxyethyl)phosphine hydrochloride solution (TCEP) were purchased from Sigma-Aldrich at the highest level of purity possible. ^3H-SAM was purchase from American Radiolabeled Chemicals with a specific activity of 80 Ci/mmol. 384-well streptavidin Flashplates were purchased from PerkinElmer.
Substrates. Peptide containing the classic RMT substrate motif was synthesized with an N-terminal linker-affinity tag motif and a C-terminal amide cap by 21st Century Biochemicals. The peptide was purified by high-performance liquid chromatography (HPLC) to greater than 95% purity and confirmed by liquid chromatography mass spectrometry (LC-MS). The sequence was Biot-Ahx-[…]-amide (SEQ ID NO.:11).
Molecular Biology: Full-length human PRMT3 (NM_005788.3) isoform 1 transcript clone was amplified from an HEK 293 cDNA library and subcloned into pGEX-KG (GE Life Sciences). The resulting construct encodes an N-terminal GST tag and a thrombin cleavage sequence ([…] […] […] […] S) (SEQ ID NO.:12) fused directly to Cys 2 of PRMT3.
Protein Expression. E. coli (BL21(DE3) Gold, Stratagene) made competent by the CaCl2) method were transformed with the PRMT3 construct and ampicillin selection. Protein over-expression was accomplished by growing the PRMT3 expressing E. coli clone and inducing expression with 0.3 mM IPTG at 16° C. The culture was grown for 12 hours, harvested by centrifugation, and stored at −80° C. for purification.
Protein Purification. […] GST-tagged PRMT3 was eluted with 50 mM Tris, 2 mM glutathione, pH 7.1 and 50 mM Tris, 20 mM glutathione, pH 7.1. Pooled fractions were dialysed in 20 mM Tris, 50 mM NaCl, 5% glycerol, 1 mM EDTA, 1 mM DTT, pH7.5 (Buffer B) and applied to a Q Sepharose Fast Flow column. GST-tagged PRMT3 was eluted by 500 mM NaCl in buffer B. Pooled fractions were dialyzed in 25 mM phosphate buffer, 100 mM NaCl, 5% glycerol, 2 mM DTT, pH 6.8 (Buffer C) and loaded on to a ceramic hydroxyapatite column. GST-tagged PRMT3 eluted with 25-400 mM phosphate in buffer C. Protein was concentrated and buffer was exchanged to 20 mM Tris, 150 mM NaCl, 5% glycerol, 5 mM β-mercaptoethanol, pH7.8 by ultrafiltration. The purity of recovered protein was 70%.
General Procedure for PRMT3 Enzyme Assays on Peptide Substrates. The assays were all performed in a buffer consisting of 20 mM Bicine (pH=7.6), 1 mM TCEP, 0.005% BSG, and 0.002% Tween 20, prepared on the day of use. Compounds in 100% DMSO (1 ul) were spotted into a polypropylene 384-well V-bottom plates (Greiner) using a Platemate Plus outfitted with a 384-channel head (Thermo Scientific). DMSO (1 ul) was added to Columns 11, 12, 23, 24, rows A-H for the maximum signal control and 1 ul of SAH, a known product and inhibitor of PRMT3, was added to columns 11, 12, 23, 24, rows I-P for the minimum signal control. A cocktail (40 ul) containing the PRMT3 enzyme was added by Multidrop Combi (Thermo-Fisher). The compounds were allowed to incubate with PRMT3 for 30 min at room temperature, then a cocktail (10 ul) containing SAM and peptide was added to initiate the reaction (final volume=51 ul). The final concentrations of the components were as follows: PRMT3 was 0.5 nM, ^3H-SAM was 100 nM, non-radiolabeled SAM was 1.8 uM, peptide was 330 nM, SAH in the minimum signal control wells was 1 mM, and the DMSO concentration was 2%. The assays were stopped by the addition of potassium chloride (10 ul) to a final concentration of 100 mM. 50 ul of the reaction in the 384-well polypropylene plate was then transferred to a 384-well Flashplate and the biotinylated peptides were allowed to bind to the streptavidin surface for at least 1 hour before being washed once with 0.1% Tween20 in a Biotek ELx405 plate washer. […]

T1 sequence (O60678 with tags, fused parts or gaps): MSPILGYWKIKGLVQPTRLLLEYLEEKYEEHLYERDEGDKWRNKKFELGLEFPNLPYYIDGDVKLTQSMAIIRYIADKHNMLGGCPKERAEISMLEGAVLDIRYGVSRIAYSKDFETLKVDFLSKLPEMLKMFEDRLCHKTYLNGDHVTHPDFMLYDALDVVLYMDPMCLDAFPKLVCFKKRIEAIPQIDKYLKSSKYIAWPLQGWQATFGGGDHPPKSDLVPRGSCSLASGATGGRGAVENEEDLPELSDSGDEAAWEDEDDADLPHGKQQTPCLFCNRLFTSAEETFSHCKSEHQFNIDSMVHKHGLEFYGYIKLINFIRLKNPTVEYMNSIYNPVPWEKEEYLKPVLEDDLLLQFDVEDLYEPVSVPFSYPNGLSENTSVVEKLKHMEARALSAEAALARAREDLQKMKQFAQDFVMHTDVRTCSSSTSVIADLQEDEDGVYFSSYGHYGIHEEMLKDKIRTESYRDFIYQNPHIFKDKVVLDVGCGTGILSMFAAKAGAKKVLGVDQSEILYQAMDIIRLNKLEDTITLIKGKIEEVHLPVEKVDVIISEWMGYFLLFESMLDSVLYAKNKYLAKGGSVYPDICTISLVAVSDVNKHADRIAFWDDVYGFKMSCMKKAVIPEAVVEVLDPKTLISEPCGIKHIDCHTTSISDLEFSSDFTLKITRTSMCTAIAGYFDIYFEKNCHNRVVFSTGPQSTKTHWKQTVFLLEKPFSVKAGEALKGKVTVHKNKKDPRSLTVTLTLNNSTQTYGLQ

CN(CCN)Cc1c[nH]nc1CCc1ccccc1 [Compound 9]
IC50: 3.01 to 10 µM
IC50 (single experiment or average of multiple experiments): 8.93 µM

— patent publication US11512053B2, “Arginine methyltransferase inhibitors and uses thereof” (priority 2013, dated 2022)
